Reference: patent publication US20260138990A1, “TRICYCLIC FUSED IMIDAZOLE COMPOUNDS AS CD38 MODULATORS AND USES THEREOF” (AEOVIAN PHARMACEUTICALS, INC., priority 2023, published 2026)

Legend:
[1] = target: T1, human CD38 (Homo sapiens, UniProt P28907); experiment: NAD+ cyclase activity assay with human recombinant CD38 protein (ε-NAD fluorescence); type: biochemical; conditions: 1.9 nM human CD38, substrate ε-NAD, 30 min preincubation, fluorescence 300/410 nm
T1 construct: purchased Bio-Techne GmbH AVI2404
T1 sequence (P28907 1-300): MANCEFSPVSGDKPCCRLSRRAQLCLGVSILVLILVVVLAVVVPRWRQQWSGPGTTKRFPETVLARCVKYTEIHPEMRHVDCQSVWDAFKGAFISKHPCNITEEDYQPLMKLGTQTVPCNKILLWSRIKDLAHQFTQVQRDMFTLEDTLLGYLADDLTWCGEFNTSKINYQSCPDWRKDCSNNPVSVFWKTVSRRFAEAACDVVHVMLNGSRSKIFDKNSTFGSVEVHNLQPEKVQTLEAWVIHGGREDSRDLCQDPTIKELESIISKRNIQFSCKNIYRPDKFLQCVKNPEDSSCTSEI
How it was run: (§1)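 Recombinant CD38 (0.6 nM mouse or 1.9 nM human) in 40 mM HEPES/NaOH pH 7.5, 250 mM sucrose, 0.01% Tween was preincubated with compound for 30 min at room temperature, then […] ε-NAD was added. Fluorescence (ex 300/em 410 nm) was read continuously. Slopes over the linear phase were normalised to enzyme and no-enzyme controls and fitted from 12-point, threefold dose-response curves.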

[2] = target: T2, mouse CD38 (Mus musculus, UniProt P56528); experiment: NAD+ cyclase activity assay with mouse recombinant CD38 protein (ε-NAD fluorescence); type: biochemical; conditions: 0.6 nM mouse CD38, substrate ε-NAD, 30 min preincubation, fluorescence 300/410 nm
T2 construct: purchased Bio-Techne GmbH 4947-AC
T2 sequence (P56528 1-304): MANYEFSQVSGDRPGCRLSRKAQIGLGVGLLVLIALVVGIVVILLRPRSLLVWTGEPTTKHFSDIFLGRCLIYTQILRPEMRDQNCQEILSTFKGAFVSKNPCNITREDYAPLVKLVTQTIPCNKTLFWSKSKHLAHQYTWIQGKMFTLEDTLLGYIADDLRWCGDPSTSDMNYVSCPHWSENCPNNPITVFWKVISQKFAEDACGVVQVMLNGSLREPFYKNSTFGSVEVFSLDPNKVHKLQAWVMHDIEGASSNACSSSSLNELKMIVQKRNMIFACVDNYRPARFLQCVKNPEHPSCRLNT
How it was run: as §1

Row | Structure (SMILES) | IC50 [1] | IC50 [2]
1 | O=C(N[C@H]1CC[C@@H](OCCC(F)(F)F)CC1)c1ccc2c(c1)-c1cncn1CCO2 [Compound 89A, N-((1s,4s)-4-(3,3,3-Trifluoropropoxy)cyclohexyl)-5,6-dihydrobenzo[f]imidazo[1,5-d][1,4]oxazepine-10-carboxamide] | 100 to 1000 nM | > 100 nM
2 | O=C(N[C@H]1CC[C@H](OCCC(F)(F)F)CC1)c1ccc2c(c1)-c1cncn1CCO2 [Compound 90A, N-((1r,4r)-4-(3,3,3-Trifluoropropoxy)cyclohexyl)-5,6-dihydrobenzo[f]imidazo[1,5-d][1,4]oxazepine-10-carboxamide] | < 30 nM | < 1 nM
3 | COCCO[C@H]1CC[C@H](NC(=O)c2cc(F)c3c(c2F)-c2cncn2CCO3)CC1 [Compound 91A, 8,11-Difluoro-N-((1r,4r)-4-(2-methoxyethoxy)cyclohexyl)-5,6-dihydrobenzo[f]imidazo[1,5-d][1,4]oxazepine-10-carboxamide] | 30 to 100 nM | 1 to 10 nM
4 | O=C(N[C@@H]1CCC(F)(F)C1)c1ccc2c(c1)-c1cncn1CCO2 [Compound 92A, (R)—N-(3,3-Difluorocyclopentyl)-5,6-dihydrobenzo[f]imidazo[1,5-d][1,4]oxazepine-10-carboxamide] | < 30 nM | 1 to 10 nM
5 | O=C(N[C@H]1CCC(F)(F)C1)c1ccc2c(c1)-c1cncn1CCO2 [Compound 93A, (S)—N-(3,3-Difluorocyclopentyl)-5,6-dihydrobenzo[f]imidazo[1,5-d][1,4]oxazepine-10-carboxamide] | < 30 nM | 1 to 10 nM
6 | COCCO[C@H]1CC[C@H](NC(=O)c2cc(Cl)c3c(c2)-c2cncn2CCO3)CC1 [Compound 94A, 8-Chloro-N-((1r,4r)-4-(2-methoxyethoxy)cyclohexyl)-5,6-dihydrobenzo[f]imidazo[1,5-d][1,4]oxazepine-10-carboxamide] | < 30 nM | < 1 nM
7 | COCCO[C@H]1CC[C@H](NC(=O)c2cc3c(c(F)c2F)OCCn2cncc2-3)CC1 [Compound 95A, 8,9-Difluoro-N-((1r,4r)-4-(2-methoxyethoxy)cyclohexyl)-5,6-dihydrobenzo[f]imidazo[1,5-d][1,4]oxazepine-10-carboxamide] | < 30 nM | 1 to 10 nM
8 | O=C(NC1CCCC(F)(F)C1)c1ccc2c(c1)-c1cncn1CCO2 (centres unmarked) [Compound 96A, N-(3,3-Difluorocyclohexyl)-5,6-dihydrobenzo[f]imidazo[1,5-d][1,4]oxazepine-10-carboxamide] | < 30 nM | 1 to 10 nM

Further lines, results first:

Row | IC50 [1] | IC50 [2] | Structure (SMILES)
9 | < 30 nM | < 1 nM | O=C(Nc1cnc2c(c1)OCCO2)c1cc(F)c2c(c1)-c1cncn1CCO2 [Compound 97A, N-(2,3-Dihydro-[1,4]dioxino[2,3-b]pyridin-7-yl)-8-fluoro-5,6-dihydrobenzo[f]imidazo[1,5-d][1,4]oxazepine-10-carboxamide]
10 | < 30 nM | 1 to 10 nM | CN1CCOc2cc(NC(=O)c3ccc4c(c3)-c3cncn3CCO4)cnc21 [Compound 98A, N-(4-Methyl-3,4-dihydro-2H-pyrido[3,2-b][1,4]oxazin-7-yl)-5,6-dihydrobenzo[f]imidazo[1,5-d][1,4]oxazepine-10-carboxamide]
11 | < 30 nM | 10 to 100 nM | O=C(Nc1cnc(N2CC(F)(F)C2)nc1)c1ccc2c(c1)-c1cncn1CCO2 [Compound 99A, N-(2-(3,3-Difluoroazetidin-1-yl)pyrimidin-5-yl)-5,6-dihydrobenzo[f]imidazo[1,5-d][1,4]oxazepine-10-carboxamide]
12 | < 30 nM | 1 to 10 nM | O=C(Nc1cnc(NCC(F)(F)F)nc1)c1ccc2c(c1)-c1cncn1CCO2 [Compound 100A, N-(2-((2,2,2-Trifluoroethyl)amino)pyrimidin-5-yl)-5,6-dihydrobenzo[f]imidazo[1,5-d][1,4]oxazepine-10-carboxamide]
13 | < 30 nM | < 1 nM | CN1CCOc2ncc(NC(=O)c3ccc4c(c3)-c3cncn3CCO4)cc21 [Compound 101A, N-(1-Methyl-2,3-dihydro-1H-pyrido[2,3-b][1,4]oxazin-7-yl)-5,6-dihydrobenzo[f]imidazo[1,5-d][1,4]oxazepine-10-carboxamide]
